Converted amounts (≈) assume the structure as drawn. The source made the active and inactive calls. The calls are words filed in the database; no cut-off is given here. Numbered stars: 1 amine (or outer) side, 2 acyl side, 3 side chain; on linkers, the order of the positions; unused ones are H or OH. Bridge positions count the residues as written; N and C are the ends. Square brackets hold non-standard residues; d marks the D form. Peptide text beside a SMILES is read from it. * marks the point of attachment. pTerphenylCO(4''-OnC5H11) = CCCCCOc1ccc(-c2ccc(-c3ccc(C(=O)*)cc3)cc2)cc1; Orn(4R-OH,5R-OH) = O=C([C@H](C[C@@H](O)[C@@H](O)N[*:3])N[*:1])[*:2]; hTyr(3S-OH,4S-OH) = N[C@H](C(=O)O)[C@H](O)[C@@H](O)c1ccc(O)cc1; Pro(3S-OH,4S-Me) = C[C@H]1CN[C@H](C(=O)O)[C@H]1O; Hyp = O=C(O)[C@@H]1C[C@@H](O)CN1
Legend:
Candida orthopsilosis [1] = test: Antifungal activity against Candida orthopsilosis clinical isolate bloodstream form assessed as time required for 99.9% reduction in fungal growth at 16 mg/L by time-kill assay; format: functional
Candida metapsilosis [2] = test: Antifungal activity against Candida metapsilosis clinical isolate bloodstream form assessed as time required for 50% reduction in fungal growth at 0.25 mg/L by time-kill assay; format: functional
Candida metapsilosis [3] = test: Antifungal activity against Candida metapsilosis clinical isolate bloodstream form assessed as time required for 50% reduction in fungal growth at 1 mg/L by time-kill assay; format: functional
Candida metapsilosis [4] = test: Antifungal activity against Candida metapsilosis clinical isolate bloodstream form assessed as time required for 50% reduction in fungal growth at 4 mg/L by time-kill assay; format: functional
Candida metapsilosis [5] = test: Antifungal activity against Candida metapsilosis clinical isolate bloodstream form assessed as time required for 50% reduction in fungal growth at 16 mg/L by time-kill assay; format: functional
Candida metapsilosis [6] = test: Antifungal activity against Candida metapsilosis clinical isolate bloodstream form assessed as time required for 50% reduction in fungal growth at 32 mg/L by time-kill assay; format: functional
Candida metapsilosis [7] = test: Antifungal activity against Candida metapsilosis clinical isolate bloodstream form assessed as time required for 90% reduction in fungal growth at 4 mg/L by time-kill assay; format: functional
Candida metapsilosis [8] = test: Antifungal activity against Candida metapsilosis clinical isolate bloodstream form assessed as time required for 99% reduction in fungal growth at 16 mg/L by time-kill assay; format: functional
Candida metapsilosis [9] = test: Antifungal activity against Candida metapsilosis clinical isolate bloodstream form assessed as time required for 99.9% reduction in fungal growth at 32 mg/L by time-kill assay; format: functional
Candida parapsilosis [10] = test: Antifungal activity against Candida parapsilosis clinical isolate bloodstream form assessed as time required for 50% reduction in fungal growth at 1 mg/L by time-kill assay; format: functional
Candida parapsilosis [11] = test: Antifungal activity against Candida parapsilosis clinical isolate bloodstream form assessed as time required for 50% reduction in fungal growth at 4 mg/L by time-kill assay; format: functional
Candida parapsilosis [12] = test: Antifungal activity against Candida parapsilosis clinical isolate bloodstream form assessed as time required for 50% reduction in fungal growth at 32 mg/L by time-kill assay; format: functional
Candida parapsilosis [13] = test: Antifungal activity against Candida parapsilosis clinical isolate bloodstream form assessed as time required for 90% reduction in fungal growth at 0.25 mg/L by time-kill assay; format: functional
Candida parapsilosis [14] = test: Antifungal activity against Candida parapsilosis clinical isolate bloodstream form assessed as time required for 90% reduction in fungal growth at 4 mg/L by time-kill assay; format: functional
Candida parapsilosis [15] = test: Antifungal activity against Candida parapsilosis clinical isolate bloodstream form assessed as time required for 99% reduction in fungal growth at 4 mg/L by time-kill assay; format: functional
Candida parapsilosis [16] = test: Antifungal activity against Candida parapsilosis clinical isolate bloodstream form assessed as time required for 99% reduction in fungal growth at 32 mg/L by time-kill assay; format: functional
Candida parapsilosis [17] = test: Antifungal activity against Candida parapsilosis clinical isolate bloodstream form assessed as time required for 99.9% reduction in fungal growth at 4 mg/L by time-kill assay; format: functional
Candida parapsilosis [18] = test: Antifungal activity against Candida parapsilosis clinical isolate bloodstream form assessed as time required for 99.9% reduction in fungal growth at 16 mg/L by time-kill assay; format: functional
Candida orthopsilosis [19] = test: Fungicidal activity against Candida orthopsilosis isolate CP-151 bloodstream form by CLSI method; format: functional; details: Lodderomyces orthopsilosis
Candida orthopsilosis [20] = test: Fungicidal activity against Candida orthopsilosis isolate ATC194 bloodstream form by CLSI method; format: functional; details: Lodderomyces orthopsilosis, isolate ATC-194
Candida metapsilosis [21] = test: Fungicidal activity against Candida metapsilosis isolate CP-132 bloodstream form by CLSI method; format: functional; details: Lodderomyces metapsilosis
Candida metapsilosis [22] = test: Fungicidal activity against Candida metapsilosis isolate CP-133 bloodstream form by CLSI method; format: functional; details: Lodderomyces metapsilosis
Candida parapsilosis [23] = test: Fungicidal activity against Candida parapsilosis isolate CP-300 bloodstream form by CLSI method; format: functional; details: Lodderomyces parapsilosis
Candida parapsilosis [24] = test: Antifungal activity against Candida parapsilosis clinical isolate bloodstream form assessed as fungal count at 4 mg/L measured at 6 hrs by time-kill assay; format: functional
Candida metapsilosis [25] = test: Antifungal activity against Candida metapsilosis clinical isolate bloodstream form assessed as induction of miniparadoxical effect at 32 mg/L after 48 hrs by time-kill assay; format: functional, organism-based
Candida parapsilosis [26] = test: Antifungal activity against Candida parapsilosis clinical isolate bloodstream form assessed as inhibition of fungal regrowth at 0.03 to 32 mg/L after 6 hrs by time-kill assay; format: functional, organism-based
Candida parapsilosis [27] = test: Antifungal activity against Candida parapsilosis clinical isolate bloodstream form assessed as induction of fungal killing rate at 0.03 to 32 mg/L measured at 6 hrs by time-kill assay; format: functional, organism-based
Candida orthopsilosis [28] = test: Antifungal activity against Candida orthopsilosis clinical isolate bloodstream form assessed as induction of maximal fungal death at 1 mg/L after 48 hrs by time-kill assay; format: functional, organism-based
Candida parapsilosis [29] = test: Antifungal activity against Candida parapsilosis clinical isolate bloodstream form assessed as induction of maximal fungal death at 8 mg/L after 48 hrs by time-kill assay; format: functional, organism-based
Candida orthopsilosis [30] = test: Antifungal activity against Candida orthopsilosis clinical isolate bloodstream form assessed as time required for 50% reduction in fungal growth at 1 mg/L by time-kill assay; format: functional
Candida orthopsilosis [31] = test: Antifungal activity against Candida orthopsilosis clinical isolate bloodstream form assessed as time required for 50% reduction in fungal growth at 16 mg/L by time-kill assay; format: functional
Candida orthopsilosis [32] = test: Antifungal activity against Candida orthopsilosis clinical isolate bloodstream form assessed as time required for 50% reduction in fungal growth at 32 mg/L by time-kill assay; format: functional
Candida orthopsilosis [33] = test: Antifungal activity against Candida orthopsilosis clinical isolate bloodstream form assessed as time required for 90% reduction in fungal growth at 0.25 mg/L by time-kill assay; format: functional
Candida orthopsilosis [34] = test: Antifungal activity against Candida orthopsilosis clinical isolate bloodstream form assessed as time required for 90% reduction in fungal growth at 1 mg/L by time-kill assay; format: functional
Candida orthopsilosis [35] = test: Antifungal activity against Candida orthopsilosis clinical isolate bloodstream form assessed as time required for 90% reduction in fungal growth at 4 mg/L by time-kill assay; format: functional
Candida orthopsilosis [36] = test: Antifungal activity against Candida orthopsilosis clinical isolate bloodstream form assessed as time required for 90% reduction in fungal growth at 16 mg/L by time-kill assay; format: functional
Candida orthopsilosis [37] = test: Antifungal activity against Candida orthopsilosis clinical isolate bloodstream form assessed as time required for 90% reduction in fungal growth at 32 mg/L by time-kill assay; format: functional
Candida orthopsilosis [38] = test: Antifungal activity against Candida orthopsilosis clinical isolate bloodstream form assessed as time required for 99% reduction in fungal growth at 1 mg/L by time-kill assay; format: functional

CCCCCOc1ccc(-c2ccc(-c3ccc(C(=O)N[C@H]4C[C@@H](O)[C@@H](O)NC(=O)[C@@H]5[C@@H](O)[C@@H](C)CN5C(=O)[C@H]([C@@H](C)O)NC(=O)[C@H]([C@H](O)[C@@H](O)c5ccc(O)cc5)NC(=O)[C@@H]5C[C@@H](O)CN5C(=O)[C@H]([C@@H](C)O)NC4=O)cc3)cc2)cc1 [ANIDULAFUNGIN] ({pTerphenylCO(4''-OnC5H11)}-[Orn(4R-OH,5R-OH)]T[Hyp][hTyr(3S-OH,4S-OH)]T[Pro(3S-OH,4S-Me)]; lactam 1-C)
Time (Candida orthopsilosis [1]): 18.73 h | Time (Candida metapsilosis [2]): 7.74 h | Time (Candida metapsilosis [3]): 1.57 h | Time (Candida metapsilosis [4]): 2.39 h | Time (Candida metapsilosis [5]): 1.51 h | Time (Candida metapsilosis [6]): 1.41 h | Time (Candida metapsilosis [7]): 7.94 h | Time (Candida metapsilosis [8]): 10.02 h | Time (Candida metapsilosis [9]): 14.06 h | Time (Candida parapsilosis [10]): inactive | Time (Candida parapsilosis [11]): 26.41 h | Time (Candida parapsilosis [12]): 4.2 h | Time (Candida parapsilosis [13]): inactive | Time (Candida parapsilosis [14]): >48 h | Time (Candida parapsilosis [15]): >48 h | Time (Candida parapsilosis [16]): 27.89 h | Time (Candida parapsilosis [17]): >48 h | Time (Candida parapsilosis [18]): >48 h | MIC (Candida orthopsilosis [19]): 0.5 µg/mL (≈ 0.438 µM) | MIC (Candida orthopsilosis [20]): 0.12 µg/mL (≈ 0.105 µM) | MIC (Candida metapsilosis [21]): 0.06 µg/mL (≈ 0.0526 µM) | MIC (Candida metapsilosis [22]): 0.06 µg/mL (≈ 0.0526 µM) | MIC (Candida parapsilosis [23]): 0.5 µg/mL (≈ 0.438 µM) | log10cfu (Candida parapsilosis [24]): 1.48 /ml | Activity (Candida metapsilosis [25]): inactive | inhibition (Candida parapsilosis [26]): inactive | Activity (Candida parapsilosis [27]): inactive | Activity (Candida orthopsilosis [28]): Active | Activity (Candida parapsilosis [29]): Active | Time (Candida orthopsilosis [30]): 6.36 h | Time (Candida orthopsilosis [31]): 1.88 h | Time (Candida orthopsilosis [32]): 1.48 h | Time (Candida orthopsilosis [33]): >48 h | Time (Candida orthopsilosis [34]): 21.14 h | Time (Candida orthopsilosis [35]): 9.08 h | Time (Candida orthopsilosis [36]): 6.24 h | Time (Candida orthopsilosis [37]): 4.91 h | Time (Candida orthopsilosis [38]): 42.28 h
